Counter-ions that a name gives are not always drawn.

One assay concerns the target T1, human renin (Homo sapiens, UniProt P00797).
T1 construct: from tissue; host or cells: human plasma from blood of healthy volunteers
T1 sequence (P00797 67-406): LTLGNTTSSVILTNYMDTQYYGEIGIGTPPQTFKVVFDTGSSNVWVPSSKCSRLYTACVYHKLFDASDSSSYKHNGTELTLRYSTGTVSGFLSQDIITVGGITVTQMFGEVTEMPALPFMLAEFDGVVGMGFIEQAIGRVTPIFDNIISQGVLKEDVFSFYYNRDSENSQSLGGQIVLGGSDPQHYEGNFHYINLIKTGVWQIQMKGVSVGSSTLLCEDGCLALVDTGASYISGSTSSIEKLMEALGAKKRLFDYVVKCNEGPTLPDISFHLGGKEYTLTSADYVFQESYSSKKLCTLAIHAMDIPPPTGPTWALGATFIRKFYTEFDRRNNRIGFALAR
The assay can be described thus: In vitro human renin inhibition (renin activity in human plasma, angiotensin I radioimmunoassay). It is filed as biochemical.
Settings: not given
The method, then: In vitro human renin inhibition
Renin inhibitory activity was estimated as the percentage change in renin activity in human plasma in the presence and absence of compound. The source of plasma was blood taken from healthy volunteers. Renin activity was defined by the difference in angiotensin I levels between two halves of a sample, one incubated at 37^o and the other at 4^o for 2h. Angiotensin I levels were measured using a ¹²⁵I- angiotensin I radioimmunoassay kit (NEN/DuPont, Stevenage). Results were calculated as the mean of at least two, duplicate determinations and IC₅₀ values were calculated by linear regression analysis of at least three concentrations of compound.
On to `CC(=O)NCCNC(=O)C[C@H](O)[C@H](CC1CCCCC1)NC(=O)[C@H](CC(C)C)NC(=O)[C@H](Cc1ccccc1)NC(=O)CC1CS(=O)(=O)c2ccccc21` (stereo partly shown) [Example E6], for which the IC50 is 87 nM.
`CC(C)C[C@H](NC(=O)[C@H](Cc1ccccc1)NC(=O)CCn1c(=O)[nH]c2ccccc21)C(=O)N[C@@H](CC1CCCCC1)[C@@H](O)CC(=O)NCCCn1ccnc1` [Example E41, (2,3-Dihydro-2-oxo-1H-benzimidazole-1-propanoyl)-Phe-Leu-ACHPA 3-(1-imidazolyl)propylamide .0.5CHCl₃] had an IC50 of 43 nM.

The assay is the same for the next values; noted with them: human plasma from healthy volunteers; angiotensin I difference between 37° and 4° incubation for 2h; linear regression of at least three concentrations; read-out: IC₅₀.
`CC(C)C[C@H](NC(=O)[C@H](Cc1ccccc1)NC(=O)CC1CS(=O)(=O)c2ccccc21)C(=O)N[C@@H](CC1CCCCC1)[C@@H](O)CC(=O)NCCCn1ccnc1` (stereo partly drawn) [El (a), (2,3-Dihydro-1,1-dioxobenzothiophene-3-yl)acetyl-Phe-Leu-ACHPA 3-(1-imidazolyl)propylamide .H₂O]: the IC50 is 15 nM.
For the molecule `CC(C)C[C@H](NC(=O)[C@H](Cc1ccccc1)NC(=O)CC1CS(=O)(=O)c2ccccc21)C(=O)N[C@@H](CC1CCCCC1)[C@@H](O)CC(=O)NCCCN1CCCC1=O` (stereo partly drawn) [Example E3, (2,3-Dihydro-1,1-dioxobenzothiophene-3-yl)acetyl-Phe-Leu-ACHPA 3-(2-oxopyrrolidin-1-yl) propylamide], the IC50 was 27 nM.
Consider `CC(C)C[C@H](NC(=O)[C@H](Cc1ccccc1)NC(=O)CC1COc2ccc(CN)cc21)C(=O)N[C@@H](CC1CCCCC1)[C@@H](O)CC(=O)NCCCn1ccnc1` (stereo partly drawn) [Example E13, (5-(Aminomethyl)-2,3-dihydrobenzofuran-3-yl)acetyl-Phe-Leu-ACHPA 3-(1-imidazolyl)propylamide .2(CF₃CO₂H).H₂O], for which the IC50 came to 32 nM.
`CC(C)C[C@H](NC(=O)[C@H](Cc1ccccc1)NC(=O)CC1CS(=O)(=O)c2ccccc21)C(=O)N[C@@H](CC1CCCCC1)[C@@H](O)CC(=O)NCCCCn1ccnc1` (stereo partly drawn) [Example E14, (2,3-Dihydro-1,1-dioxobenzothiophene-3-yl)acetyl-Phe-Leu-ACHPA 4-(1-imidazolyl)butylamide .HCl.2H₂O]: the IC50 was determined as 37 nM.
As to `COC(=O)CCCCNC(=O)C[C@H](O)[C@H](CC1CCCCC1)NC(=O)[C@H](CC(C)C)NC(=O)[C@H](Cc1ccccc1)NC(=O)CC1CS(=O)(=O)c2ccccc21` (stereo partly drawn) [Example E18, (2,3-Dihydro-1,1-dioxobenzothiophene-3-yl)acetyl-Phe-Leu-ACHPA-NH(CH₂)CO₂Me.0.5H₂O], the IC50 worked out at 30 nM.
On to `CC(C)C[C@H](NC(=O)[C@H](Cc1ccccc1)NC(=O)CC1CS(=O)(=O)c2ccccc21)C(=O)N[C@@H](CC1CCCCC1)[C@@H](O)CC(=O)NCCCCC(=O)O` (stereo partly drawn) [Example E19, (2,3-Dihydro-1,1-dioxobenzothiophene-3-yl)acetyl-Phe-Leu-ACHPA-NH(CH₂)₄CO₂H], for which the IC50 came out at 45 nM.
Turning to `CC(C)C[C@H](NC(=O)[C@H](Cc1ccccc1)NC(=O)CC1CS(=O)(=O)c2ccccc21)C(=O)N[C@@H](CC1CCCCC1)[C@@H](O)CC(=O)NCCN1CCN(C)CC1` (stereo partly drawn) [Example E22, (2,3-Dihydro-1,1-dioxobenzothiophene-3-yl)acetyl-Phe-Leu-ACHPA 2-(4-methylpiperazin-1-yl)ethylamide .2.5H₂O], the IC50 was found to be 95 nM.
Same read-out and setting: then `CC(C)C[C@H](NC(=O)[C@H](Cc1ccccc1)NC(=O)CCCC1Cc2ccc(N)cc2S1(=O)=O)C(=O)N[C@@H](CC1CCCCC1)[C@@H](O)CC(=O)NCCCn1ccnc1` (stereo partly drawn) [Example E34a, 4-(6-Amino-2,3-dihydro-1,1-dioxobenzothiophene-2-yl)butanoyl-Phe-Leu-ACHPA 3-(1-imidazolyl)propylamide], with 12 nM.
As to `CC(C)C[C@H](NC(=O)[C@H](Cc1ccccc1)NC(=O)CC1CS(=O)(=O)c2cc(CN)ccc21)C(=O)N[C@@H](CC1CCCCC1)[C@@H](O)CC(=O)NCCCC(=O)O` (stereo partly drawn) [Example E37, (6-(Aminomethyl)-2,3-dihydro-1,1-dioxobenzothiophene-3-yl)acetyl-Phe-Leu-ACHPA-NH(CH₂)₃CO₂H .CF₃CO₂H], the IC50 was 44 nM.
On the same count and under the same terms, as for `CC(C)C[C@H](NC(=O)[C@H](Cc1ccccc1)NC(=O)CC1CS(=O)(=O)c2ccc(CN)cc21)C(=O)N[C@@H](CC1CCCCC1)[C@@H](O)CC(=O)NCCCn1ccnc1` (stereo partly drawn) [Example E43, (5-(Aminomethyl)-2,3-dihydro-1,1-dioxobenzothiophene-3-yl)acetyl-Phe-Leu-ACHPA 3-(1-imidazolyl)propylamide .3CF₃CO₂H.H₂O], the figure is 12 nM; as for `CC(C)C[C@H](NC(=O)[C@H](Cc1ccccc1)NC(=O)CC1COc2ccc(CNCC(=O)O)cc21)C(=O)N[C@@H](CC1CCCCC1)[C@@H](O)CC(=O)NCCCn1ccnc1` (stereo partly drawn) [Example E44, (5- (Carboxymethylaminomethyl)-2,3-dihydrobenzofuran-3-yl)acetyl-Phe-Leu-ACHPA 3-(1-imidazolyl)propylamide .3(CF₃CO₂H)], 48 nM.
Turning to `CC(C)C[C@H](NC(=O)[C@H](Cc1ccccc1)NC(=O)CCCC1Cc2ccccc2S1(=O)=O)C(=O)N[C@@H](CC1CCCCC1)[C@@H](O)CC(=O)NCCCn1ccnc1` (stereo partly drawn) [Example E50a, 4-(2,3-Dihydro-1,1-dioxobenzothiophene-2-yl)butanoyl-Phe-Leu-ACHPA 3-(1-imidazolyl)propylamide], the IC50 worked out at 14 nM.
`CC(C)C[C@H](NC(=O)[C@H](Cc1ccccc1)NC(=O)CC1CS(=O)(=O)c2cc(CN)ccc21)C(=O)N[C@@H](CC1CCCCC1)[C@@H](O)CC(=O)NCCCn1ccnc1` (stereo partly drawn) [Example E52, (6-(Aminomethyl)-2,3-dihydro-1,1-dioxobenzothiophene-3-yl)acetyl-Phe-Leu-ACHPA 3-(1-imidazolyl)propylamide .3(CF₃CO₂H)]: the IC50 came out at 20 nM.

Still in this assay, the particulars now being: read-out: IC₅₀; human plasma from healthy volunteers; angiotensin I difference between 37° and 4° incubation for 2h; linear regression of at least three concentrations.
On to `CC(C)C[C@H](NC(=O)[C@H](Cc1ccccc1)NC(=O)CC1CS(=O)(=O)c2cc(CNC(=O)OC(C)(C)C)ccc21)C(=O)N[C@@H](CC1CCCCC1)[C@@H](O)CC(=O)NCCCn1ccnc1` (stereo partly shown) [Example E51], for which the IC50 stood at 53 nM.

The record behind these values is EP0375451A2, “Compounds having a renin-inhibiting activity” (BEECHAM GROUP PLC, priority 1988, dated 1990).
